Assay results reported in patent EP0532512B1, “USE OF PLATELET ACTIVATING FACTOR ANTAGONISTS AS ANTI-PRURITIC AGENTS” (ALLERGAN, INC., priority 1990, dated 1991).
Where a SMILES comes first, the peptide text is derived from it.

Legend:
albino guinea-pig eye = assay: Pruritogenic activity of autocoids: topical drop to the eye (conjunctiva), scratching episodes counted over 15 minutes; type: in vivo; conditions: for NO OF SCRATCH EPISODES (X̄ ± SEM): 15 minutes, n=12; for pruritogenic activity (in words): summary of Table 1
Text: (§1) A more complete appreciation of the invention may be obtained from the following Examples. As a means of providing an atraumatic experimental model of itching, the conjunctiva was used as a convenient tissue site. Pruritogenic agents may be administered to the conjunctiva without the need to traumatize the tissue by injection or scarification. The itch sensation is elicited peripherically by local, atraumatic application of the pruritogen. Of equal importance is the ability of this model to identify locally acting anti-pruritic agents without concerns regarding local tissue trauma or, in the case of systemically administered agents, sedation.
(§2) The pruritogenic activity of numerous and structurally diverse autocoids was examined as follows. A 20 µl drop of a solution of the particular autocoid under evaluation was topically administered to one albino guinea-pig eye, the contralateral eye received 20 µl of vehicle as a control. For PAF studies, the R=15 version of formula I was used and was taken up in 0.5% ultrapure bovine serum albumin. The guinea pig was then replaced in its cage and the number of scratching episodes was recorded over the 15 subsequent minute period. The retention of the experimental animal in familiar surroundings is an important factor in experimental design. Scratching, which is the typical mammalian behavioral response to the itch sensation, provides an indication of the intensity of the perceived itch sensation and can be quantified by recording the frequency at which itch-scratch episodes occur per unit time: 15 minutes in the case of these examples.

PAF induced pruritus = assay: Attenuation of PAF induced pruritus by 30 minute topical pretreatment (conjunctival itch-scratch model); type: in vivo, guinea-pig; conditions: for scratch episodes, TREATED GROUP (mean ± SEM): 30 minute topical pretreatment, n=12
Text: as §1, §2
The ability of a 30 minute topical pretreatment with selected PAF antagonists to attenuate PAF induced pruritus is shown in Table 2.

[1] = system: experimental allergic itching; assay: Experimental allergic itching: conjunctival antigen (chicken ovalbumin) challenge in presensitized animals after pretreatment; type: in vivo; conditions: n=8-10
Text: as §1
In addition to pharmacological studies on pruritogenic autocoids, the conjunctiva may be used as a convenient site for modelling diseases where itching is a major symptom. In animals presensitized to a particular antigen, subsequent topical challenge with that antigen results in conjunctival itching. This may be regarded as an experimental model of itching which has general relevance to clinically encountered pruritus. In the studies described herein, chicken ovalbumin was used as an antigenic substance and the ability of PAF antagonist pretreatment to block the itching response was examined (Table 3).

[2] = dose 10 μg, 20 µl drop topically to one eye
[3] = dose 100 μg, 20 µl drop topically to one eye

## CCCCC/C=C\C/C=C\C/C=C\C=C\C(O)CCCC(=O)O (stereo not shown) [5-Hydroxytetraemoic Acid]
Albino guinea-pig eye; [2]
  NO OF SCRATCH EPISODES (X̄ ± SEM): 0.33 ± 0.22

## CC(=O)O [10mM ACETIC ACID, ACETIC ACID]
Albino guinea-pig eye; pain producing stimulus solution, no dose printed (--)
  NO OF SCRATCH EPISODES (X̄ ± SEM): 0.42 ± 0.19
Albino guinea-pig eye
  pruritogenic activity (in words): virtual absence of an itch-scratch response

## CCCCC/C=C\CC(O)/C=C/C=C\C/C=C\CCCC(=O)O (stereo not shown) [12-Hydroxytetraemoic Acid]
Albino guinea-pig eye; [2]
  NO OF SCRATCH EPISODES (X̄ ± SEM): 0.08 ± 0.08

## CCCCCC(O)/C=C/C=C\C/C=C\C/C=C\CCCC(=O)O (stereo not shown) [15-Hydroxytetraemoic Acid]
Albino guinea-pig eye; [2]
  NO OF SCRATCH EPISODES (X̄ ± SEM): 0.08 ± 0.08

## CCCCCCCCCCCCCCCCCCNC(=O)OCC(COC(=O)N(Cc1cccc[n+]1CC)C(C)=O)OC (stereo not shown) [Compound of formula (II)]
PAF induced pruritus; 10 mg/ml, vs 1 µg PAF
  scratch episodes, TREATED GROUP (mean ± SEM): 2.67 ± 0.68
PAF induced pruritus; 10 mg/ml, vs 10 µg PAF
  scratch episodes, TREATED GROUP (mean ± SEM): 6.50 ± 1.09
[1]; 1 mg/ml pretreatment vs 100 µG antigen
  scratch episodes, TREATED GROUP: 7.62 ± 0.96

## CC1C(=O)OC2C(O)C34C5CC(C(C)(C)C)C36C(OC(=O)C6O)OC4(C(=O)O5)C12O (stereo not shown) [Compound of formula (III), Ginkgolide B]
PAF induced pruritus; 10 mg/ml, vs 10 µg PAF
  scratch episodes, TREATED GROUP (mean ± SEM): 8.42 ± 1.37
[1]; 10 mg/ml pretreatment vs 100 µG antigen
  scratch episodes, TREATED GROUP: 6.87 ± 1.61

## Cc1nnc2n1-c1sc(CCC(=O)N3CCOCC3)cc1C(c1ccccc1Cl)=NC2 [Compound of formula (IV)]
PAF induced pruritus; 5 mg/ml, vs 1 µg PAF
  scratch episodes, TREATED GROUP (mean ± SEM): 0.33 ± 0.19
PAF induced pruritus; 5 mg/ml, vs 10 µg PAF
  scratch episodes, TREATED GROUP (mean ± SEM): 5.25 ± 0.98
[1]; 10 mg/ml pretreatment vs 10 µG antigen
  scratch episodes, TREATED GROUP: 5.00 ± 1.10

## C[C@H](N)C(=O)NCC(=O)N[C@@H](CO)C(=O)N[C@@H](CCC(=O)O)C(=O)O [L-alanylglycyl-L-seryl-L-glutamic acid] (H-AGSE-OH)
Albino guinea-pig eye; dose 1000 μg, 20 µl drop topically to one eye
  NO OF SCRATCH EPISODES (X̄ ± SEM): 1.42 ± 0.47

## CC(C)[C@H](N)C(=O)NCC(=O)N[C@@H](CC(=O)O)C(=O)N[C@@H](CCC(=O)O)C(=O)O [L-valylglycyl-L-aspartyl-L-glutamic acid] (H-VGDE-OH)
Albino guinea-pig eye; [3]
  NO OF SCRATCH EPISODES (X̄ ± SEM): 0.92 ± 0.26

## CCCCC/C=C\C[C@@H](O)/C=C/C=C/C=C\[C@@H](O)CCCC(=O)O [LEUKOTRIENE B4]
Albino guinea-pig eye; [2]
  NO OF SCRATCH EPISODES (X̄ ± SEM): 0.42 ± 0.23

## CCCCC/C=C\C\C=C/C=C/C=C/[C@@H](SC[C@H](NC(=O)CC[C@H](N)C(=O)O)C(=O)NCC(=O)O)[C@@H](O)CCCC(=O)O [LEUKOTRIENE C4]
Albino guinea-pig eye; [2]
  NO OF SCRATCH EPISODES (X̄ ± SEM): 0.58 ± 0.36

## CCCCCCCCCCCCCCCCOC[C@@H](O)COP(=O)([O-])OCC[N+](C)(C)C [LYSO-PAF]
Albino guinea-pig eye; dose 1 μg, 20 µl drop topically to one eye
  NO OF SCRATCH EPISODES (X̄ ± SEM): 0.92 ± 0.26
Albino guinea-pig eye; [2]
  NO OF SCRATCH EPISODES (X̄ ± SEM): 2.67 ± 0.73
Albino guinea-pig eye; [3]
  NO OF SCRATCH EPISODES (X̄ ± SEM): 13.0 ± 1.58
Albino guinea-pig eye
  pruritogenic activity (in words): relatively weak activity

## CCCCCCCCCCCCCCCCOCC(COP(=O)([O-])OCC[N+](C)(C)C)OC(C)=O (stereo not shown) [PAF, 1-O-alkyl-2-acetyl-sn-glycero-3-phosphocholine]
Albino guinea-pig eye
  pruritogenic activity (in words): most potent pruritogenic agent

## CCCCC[C@H](O)/C=C/[C@@H]1[C@@H](C/C=C\CCCC(=O)O)[C@@H](O)C[C@H]1O [PROSTAGLANDIN F2α]
Albino guinea-pig eye; [3]
  NO OF SCRATCH EPISODES (X̄ ± SEM): 1.75 ± 0.37

## COc1ccc(CN(CCN(C)C)c2ccccn2)cc1 [Pyrilamine]
PAF induced pruritus; 0.1 mg/ml, vs 1 µg PAF
  scratch episodes, TREATED GROUP (mean ± SEM): 4.17 ± 0.91
PAF induced pruritus; 0.1 mg/ml, vs 10 µg PAF
  scratch episodes, TREATED GROUP (mean ± SEM): 14.25 ± 1.75
PAF induced pruritus; summary of Table 2
  block of PAF induced pruritus (in words): not

## Bradykinin (RPPGFSPFR; Bradykinin; UniProt P01042 381-389, looked up)
Albino guinea-pig eye; [2]
  NO OF SCRATCH EPISODES (X̄ ± SEM): 0.50 ± 0.23
Albino guinea-pig eye; [3]
  NO OF SCRATCH EPISODES (X̄ ± SEM): 4.00 ± 0.90
